Read-outs that look alike come from different tables or passages of the source.
Assays:
[1] = system: previously untreated, high-risk (IPI or R-IPI≥3) DLBCL; test: Phase 1b open-label trial of epcoritamab in combination with R-CHOP; format: in vivo, human; conditions: as of Sep. 8, 2021; CRS under epcoritamab + R-CHOP
Procedure: Epcoritamab is initially be administered in combination with R-CHOP in a 3-subject cohort. DLTs are evaluated during the first 28 days.
Cyclophosphamide (750 mg/m^2) is administered intravenously on day 1 once every three weeks (Q3 W) of cycles 1-6 or 1-8. Doxorubicin (50 mg/m^2) is administered intravenously on day 1 once every three weeks (Q3 W) of cycles 1-6 or 1-8. Vincristine (1.4 mg/m^2, with a recommended cap of 2 mg) is administered intravenously on day 1 once every three weeks (Q3 W) of cycles 1-6 or 1-8. Prednisone (100 mg/day) is administered intravenously or orally on five consecutive days (days 1-5) every three weeks (Q3 W) of cycles 1-6 or 1-8.
MRD negativity rate, is defined as the proportion of subjects with at least 1 undetectable MRD result according to the specific threshold, prior to initiation of subsequent therapy.

[2] = system: T cells; test: T cell viability after pre-incubation with CHOP components; format: cell-based
[3] = molecular target: T1, CD20 (Homo sapiens, UniProt P11836); conditions: bind to a different epitope; cited from earlier work
T1 sequence (P11836 1-297): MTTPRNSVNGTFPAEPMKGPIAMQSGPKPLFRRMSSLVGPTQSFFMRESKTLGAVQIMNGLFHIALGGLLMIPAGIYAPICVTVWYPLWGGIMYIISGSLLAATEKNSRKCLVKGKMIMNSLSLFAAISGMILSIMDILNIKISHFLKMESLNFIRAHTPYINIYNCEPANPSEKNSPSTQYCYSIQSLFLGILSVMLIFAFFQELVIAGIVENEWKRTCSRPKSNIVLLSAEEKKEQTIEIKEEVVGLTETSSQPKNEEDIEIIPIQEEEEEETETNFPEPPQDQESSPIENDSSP

[4] = system: primary DLBCL and follicular lymphoma patient biopsies; conditions: cited from earlier work
[5] = system: relapsed/refractory (R/R) B-NHL; test: epcoritamab monotherapy clinical trial (NCT03625037); format: in vivo
Source text: Epcoritamab as monotherapy is currently in a clinical trial for the treatment of relapsed/refractory (R/R) B-NHL (ClinicalTrials.gov Identifier: NCT03625037).

[6] = system: CD20-expressing Raji-luc tumor cells; conditions: even in the presence of an excess of IgG1-RTX-FEAR; Engelberts et al. 2020; cited from earlier work
[7] = T cells pre-incubated 16 hours, data not shown

tocilizumab: a humanized antibody against IL-6 receptor, commercially available as, e.g., ACTEMRA
outcome of the Grade 3 CRS episode after treatment [1]: recovered

COc1cccc2c1C(=O)c1c(O)c3c(c(O)c1C2=O)C[C@@](O)(C(=O)CO)C[C@@H]3O[C@H]1C[C@H](N)[C@H](O)[C@H](C)O1 [doxorubicin]
T cell viability after pretreatment [2, 7]: led to a reduction in T cell viability

C[C@]12C=CC(=O)C=C1CC[C@@H]1[C@@H]2C(=O)C[C@@]2(C)[C@H]1CC[C@]2(O)C(=O)CO [prednisone, 17,21-dihydroxypregna-1,4-diene-3,11,20-trione]
T cell viability after pretreatment [2, 7]: did not impact T cell viability

CC[C@]1(O)C[C@H]2CN(CCc3c([nH]c4ccccc34)[C@@](C(=O)OC)(c3cc4c(cc3OC)N(C=O)[C@H]3[C@@](O)(C(=O)OC)[C@H](OC(C)=O)[C@]5(CC)C=CCN6CC[C@]43[C@@H]65)C2)C1 [vincristine]
T cell viability after pretreatment [2, 7]: did not impact T cell viability

IgG1-CD20: anti-CD20 antibody of which the CD20 arm of epcoritamab is derived
competition for CD20 binding [3]: compete for CD20 binding

O=P1(N(CCCl)CCCl)NCCCO1 (centres unmarked) [cyclophosphamide, 2H-1,3,2-Oxazaphosphorin-2-amine, N,N-bis(2-chloroethyl)tetrahydro-, 2-oxide]
T cell viability after pretreatment [2]: did not impact T cell viability

epcoritamab: IgG1 bispecific CD3xCD20 antibody; heavy and light chain pairs SEQ ID NOs: 24/25 (CD3ε arm) and 26/27 (CD20 arm); CAS 2134641-34-0
T-cell-mediated cytotoxicity ([4]; biopsies taken a certain amount of time after anti-CD20 antibody, Van der Horst et al. 2019): induced T-cell-mediated cytotoxicity | tumor cell kill ([4]; biopsy taken 2 weeks after administering anti-CD20 antibody): up to 40% | tolerated dose ([5]; human, in vivo): at least 48 mg | dose-limiting toxicities ([5]; monotherapy, R/R B-NHL patients, preliminary data): no dose-limiting toxicities reported | tumor growth [6]: effectively reduce tumor growth
